The values that follow come from patent US8299069B2, “2-(2-oxoindoline-3-ylidene)methyl-5-(2-hydroxy-3-morpholin-4-yl-propyl)-6,7-dihydro-1H-pyrrol[3,2-C]pyridine-4(5H)-one compounds and use as protein kinase inhibitors” (Jiangsu Hengrui Medicine Co., Ltd., priority 2007, dated 2012).

The target of one experiment is recombinant human VEGF-R2 (Homo sapiens, UniProt P35968). Kind of experiment: VEGF-R2 kinase assay (ELISA, DELFIA time-resolved fluorescence).
Chain of recombinant human VEGF-R2 (P35968 789-1356 limits assumed): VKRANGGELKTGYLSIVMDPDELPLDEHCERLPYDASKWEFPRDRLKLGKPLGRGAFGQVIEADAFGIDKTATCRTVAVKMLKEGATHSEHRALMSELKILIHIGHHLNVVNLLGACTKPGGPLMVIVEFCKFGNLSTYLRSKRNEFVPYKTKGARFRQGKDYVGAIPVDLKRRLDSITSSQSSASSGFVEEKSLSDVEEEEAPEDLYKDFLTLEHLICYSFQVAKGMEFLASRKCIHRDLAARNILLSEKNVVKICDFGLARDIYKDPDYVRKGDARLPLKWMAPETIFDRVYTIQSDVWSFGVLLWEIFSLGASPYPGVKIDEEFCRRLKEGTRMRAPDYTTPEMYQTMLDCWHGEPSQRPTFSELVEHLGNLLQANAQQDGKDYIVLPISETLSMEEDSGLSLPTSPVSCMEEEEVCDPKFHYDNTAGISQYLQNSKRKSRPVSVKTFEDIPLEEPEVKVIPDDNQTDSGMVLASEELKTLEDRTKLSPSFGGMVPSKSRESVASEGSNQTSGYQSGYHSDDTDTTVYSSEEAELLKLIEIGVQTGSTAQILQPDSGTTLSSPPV
Conditions: not given
`Cc1c(/C=C2\C(=O)Nc3ccc(Br)cc32)[nH]c2c1C(=O)N(C[C@H](O)CN1CCOCC1)CC2` [Example 4, (R,Z)-2-(5-Bromo-2-oxo-1,2-dihydro-indol-3-ylidenemethyl)-5-(2-hydroxy-3-morpholin-4-yl-propyl)-3-methyl-1,5,6,7-tetrahydro-pyrrolo[3,2-c]pyridin-4-one]: the IC50 was 998 nM.

Turning to `Cc1c(/C=C2\C(=O)Nc3cc(NC(=O)C(C)(C)O)c(F)cc32)[nH]c2c1C(=O)N(C[C@@H](O)CN1CCOCC1)CC2` [Example 11, (S,Z)-N-{5-Fluoro-3[5-(2-hydroxy-3-morpholin-4-yl-propyl)-3-methyl-4-oxo-4,5,6,7-tetrahydro-1H-pyrrolo[3,2-c]pyridin-2-ylmethylene]-2-oxo-2,3-dihydro-1H-indol-6-yl}-2-hydroxy-2-methyl-propionamide], the IC50 was 3 nM.

As to `COCC(=O)Nc1cc2c(cc1F)/C(=C/c1[nH]c3c(c1C)C(=O)N(C[C@@H](O)CN1CCOCC1)CC3)C(=O)N2` [Example 13, (S,Z)-N-{5-Fluoro-3-[5-(2-hydroxy-3-morpholin-4-yl-propyl)-3-methyl-4-oxo-4,5,6,7-tetrahydro-1H-pyrrolo[3,2-c]pyridin-2-ylmethylene]-2-oxo-2,3-dihydro-1H-indol-6-yl}-2-methoxy-acetamide], the IC50 was found to be 130 nM.

Turning to `COCC(=O)Nc1cc2c(cc1F)/C(=C/c1[nH]c3c(c1C)C(=O)N(C[C@H](O)CN1CCOCC1)CC3)C(=O)N2` [Example 16, (R,Z)-N-{5-Fluoro-3-[5-(2-hydroxy-3-morpholin-4-yl-propyl)-3-methyl-4-oxo-4,5,6,7-tetrahydro-1H-pyrrolo[3,2-c]pyridin-2-ylmethylene]-2-oxo-2,3-dihydro-1H-indol-6-yl}-2-methoxy-acetamide], the IC50 is 110 nM.

As to `Cc1c(/C=C2\C(=O)Nc3cc(NC(=O)C(C)(C)O)c(F)cc32)[nH]c2c1C(=O)N(C[C@H](O)CN1CCOCC1)CC2` [Example 17, (R,Z)-N-{5-Fluoro-3-[5-(2-hydroxy-3-morpholin-4-yl-propyl)-3-methyl-4-oxo-4,5,6,7-tetrahydro-1H-pyrrolo[3,2-c]pyridin-2-ylmethylene]-2-oxo-2,3-dihydro-1H-indol-6-yl}-2-hydroxy-2-methyl-propionamide], the IC50 was 4 nM.

In the next experiment the test system is HUVEC cell. The experiment in a line: Cell proliferation inhibition assay (SRB) on HUVEC cells highly expressing VEGFR. The settings on record: Homo sapiens, 72 h, read-out: IC50 (VEGFR/HUVEC).
Description: The cellular assay described here is used to test anti-angiogenesis and proliferation inhibition activity and effect of the compounds through VEGFR on the cancer cells in vitro. The effect and activity is represented by the IC50 value that kills the cancer cells. The general procedures of the assay are as follows: The Homo sapiens cells that highly expressing VEGFR were chosen and seeded to 96-well cell culture plate at a suitable concentration (e.g., 5000 cells/mL medium). […] Then, the cell culture medium was replaced by fresh one with testing compounds added in it at serial concentrations (general 6 or 7 concentrations). Then the cells were put back to the incubator and cultured for 72 hours continuously. 72 hours later, the treated compounds were assayed for their proliferation status by using Sulforhodamine B (SRB) method. IC50 of compounds on tested cells was calculated by using data of inhibition rate of serial concentrations of the testing compounds.
The following protocol is used to assay the cell toxicity (anti-proliferation activity, which is expressed as IC50 value) of testing compounds of the invention on HUVEC cell: • 1. HUVEC cells were cultured with growth media (DMEM/F12, supplemented with 10% FBS) in 100 mm corning culture plate at 37° C., 5% CO2 till confluency. • 2. HUVEC cells were washed with cold PBS solution, then the cells were harvested by trypsinization and seeded in corning 96-well cell culture plates at a concentration of 50,000 cells/ml, 6 empty wells were left on each plate as plate background. • 3. The cells were cultured in 96-well plates at 37° C., 5% CO2, till 85% confluency. • 4. The compound stock solution was prepared by using DMSO to solve candidate compounds to a concentration of 20 mM. Then DMSO was used to dilute the stock solution to a serial concentration to prepare testing compound solution samples (e.g., 2 mM, 1 mM, 0.2 mM, 20 μM, 2 μM, 0.2 μM). • 5. Cell culture medium (DMEM/F12+10% FBS) was used to dilute the compound solution prepared previously. […] Background absorbance was measured in wells incubated only with growth medium. • 11. […]
In the case of `Cc1c(/C=C2\C(=O)Nc3ccc(Cl)cc32)[nH]c2c1C(=O)N(C[C@H](O)CN1CCOCC1)CC2` [Example 2, (R,Z)-2-(5-Chloro-2-oxo-1,2-dihydro-indol-3-ylidenemethyl)-5-(2-hydroxy-3-morpholin-4-yl-propyl)-3-methyl-1,5,6,7-tetrahydro-pyrrolo[3,2-c]pyridin-4-one], the IC50 amounted to 2400 nM.

`Cc1c(/C=C2\C(=O)Nc3cccc(-c4cccc(F)c4F)c32)[nH]c2c1C(=O)N(C[C@H](O)CN1CCOCC1)CC2` [Example 3, 2-[(Z)-4-(2,3-Difluoro-phenyl)-2-oxo-1,2-dihydro-indol-3-ylidenemethyl]-5-[(R)-2-hydroxy-3-morpholin-4-yl-propyl]-3-methyl-1,5,6,7-tetrahydro-pyrrolo[3,2-c]pyridin-4-one]: the IC50 is 840 nM.

`Cc1c(/C=C2\C(=O)Nc3cccc(-c4c(F)cccc4F)c32)[nH]c2c1C(=O)N(C[C@@H](O)CN1CCOCC1)CC2` [Example 20, (S,Z)-2-[4-(2,6-Difluoro-phenyl)-2-oxo-1,2-dihydro-indol-3-ylidenemethyl]-5-(2-hydroxy-3-morpholin-4-yl-propyl)-3-methyl-1,5,6,7-tetrahydro-pyrrolo[3,2-c]pyridin-4-one]: the IC50 worked out at 10 nM.
